Data on six compounds can be found in PMC8764033, “Single-molecule analysis of specificity and multivalency in binding of short linear substrate motifs to the APC/C” (Nature Communications, 2022).

Format in all cases: binding
For assay [1], the target named is T1, APC/C^Cdc20 (Saccharomyces cerevisiae, UniProt P26309+P53068).
T1 construct: APC/C was purified from yeast cells; made in house; host or cells: APC/C from S. cerevisiae W303 strain NHY13 (Cdc16-TAP, Apc1-GFP, cdh1 deleted); Cdc20 from Sf9 (baculovirus)
Nature of the assay: SMOR assay, yeast APC/C^Cdc20. The following applies: for mean dwell time: representative of two independent experiments, ± SE, ligand ≤1 nM, buffer C + BSA. Here is the method:
(§1) Yeast strains were derivatives of W303 and are listed in Supplementary Table 2. For APC/C purification, we used a strain carrying Cdc16-TAP and lacking Cdh1 (DOM1126); in most experiments, the strain also carried Apc1-GFP (NHY13). Yeast were grown in YPD media to OD600 = 0.8, collected and flash-frozen. Cells were lysed by bead beating in lysis buffer A (50 mM HEPES pH 7.5, 150 mM KCl, 10% glycerol, 0.2% Triton X-100, 63 µM B-glycerophosphate, 48 µM sodium fluoride, 1 µg ml^−1 pepstatin A, 1 µg ml^−1 leupeptin, 1 µg ml^−1 aprotinin, 1 mM PMSF, 1 mM DTT, 0.5 mM EDTA) and APC/C was purified using magnetic IgG beads. The beads were washed using wash buffer A (20 mM HEPES pH 7.5, 150 mM KCl, 10% Glycerol, 0.05% Triton X-100). After incubation with purified Cdh1 or Cdc20, the APC/C was cleaved off the beads with TEV protease in wash buffer A with 0.05% Tween-20 (for single-molecule studies) or 0.05% Triton X-100 (for ensemble assays such as ubiquitylation) and used immediately.
(§2) For all SMOR experiments, 24 × 50 mm high precision glass coverslips (Bioscience Tools) and drilled microscope slides were passivated with a combination of PEG and PEG-biotin (coverslips) or PEG only (slides) following a previously published protocol for SiMPull[31]. Reaction chambers (~20 µl) were created using double-sided tape and epoxy. Protein was immobilized on the surface with 0.2 mg ml^−1 NeutrAvidin in buffer C (20 mM HEPES pH 7.5, 150 mM KCl, 10% glycerol, 0.05% Tween-20, 1 mM DTT). Excess NeutrAvidin was washed away and incubated with either biotin-conjugated mouse monoclonal anti-Strep-Tag II antibody (LSBio, Cat. No. LS-C203632-100) or biotin-conjugated rabbit polyclonal anti-GFP antibody (Rockland, Cat. No. 600-406-215) diluted in buffer C + BSA (0.1 mg ml^−1; Molecular Biology Grade Bovine Serum Albumin). Activator WD40 and activated APC/C (typically 50 µl containing about 65 ng APC/C, of which only a small fraction is immobilized on the glass) were immobilized using anti-Strep-Tag II, while APC/C alone was immobilized with anti-GFP. SMOR results were similar when performed in the buffer (wash buffer B) used in polarization anisotropy.
(§3) To capture dynamic protein–protein interactions, dye-labeled substrate diluted in buffer C + BSA was added to the chamber containing immobilized proteins. Interactions were imaged by TIRF microscopy as described below. For optimal signal-to-noise ratio, peptide concentration was no greater than 1 nM. Protein substrates included Hsl1 aa 667–872 and a C-terminal HaloTag followed by a TAP tag, and were produced by translation in rabbit reticulocyte lysates using TnT Quick Coupled Transcription/Translation System (Promega) (see Supplementary Table 5 for plasmids). Protein was purified with magnetic IgG beads and labeled on the bead with JF549 or JF646 dye so that unbound dye could be washed away. Purified dye-labeled protein was then cleaved from the beads using TEV protease. Before adding substrate to the reaction chamber, oxygen scavenging reagents were added (10 nM protocatechuate-3,4-dioxygenase, 2.5 mM protocatechuic acid, and 1 mM Trolox)[41]. A detailed description of the SMOR analysis pipeline is found in Supplementary Note 1.
(§4) Microscopy was performed with a Nikon Eclipse TE2000-E with Perfect Focus with a 100 × 1.49na oil, Apo TIRF DIC N2, 0.13-0.2, WD0.12 objective. Movies were recorded using the Andor iXon DU-897E-CSO. For visualizing GFP-tagged protein, a 491 nm laser was used with an ET525/50 (Chroma) filter for emission. For visualizing JF549-labeled substrate, a 561 nm laser was used with an ET595/50 (Chroma) filter for emission. For visualizing all Cy5-labeled peptides and JF646-labeled substrates, a 640 nm laser was used with an ET685/70 filter (Chroma) for emission. Initially, for each substrate tested, we acquired movies at multiple intervals to deduce the optimal interval to decrease bleaching. µManager version 2.0 was used to control the microscope and record time-lapse movies.

In assay [2] the target is T2, APC/C^apo (Saccharomyces cerevisiae, UniProt P38042+P53068).
T2 construct: APC/C was purified from yeast cells; made in house; host or cells: S. cerevisiae W303 strain NHY13 (Cdc16-TAP, Apc1-GFP, cdh1 deleted)
Nature of the assay: SMOR assay, yeast APC/C^apo (no activator). The conditions noted are these: Supplementary Table 1, single movie. Here is the method: as §1, §2, §3, §4

Assay [3] addresses T3, hCdh1^WD40 (Homo sapiens, UniProt Q9UM11).
T3 construct: human Cdh1 (aa 165–484; pNH164); made in house; host or cells: Sf9 insect cells (baculovirus)
Nature of the assay: SMOR assay, human Cdh1 WD40. The conditions noted are these: for mean dwell time: representative of two independent experiments, ± SE, ligand ≤1 nM, buffer C + BSA. Here is the method: Activators were cloned into the pFastBac HT A vector, with an N-terminal 2xStrep-Tag II. For some experiments, we constructed vectors for expression of the WD40 domains of yeast Cdh1 (aa 241–550; pNH144), human Cdh1 (aa 165–484; pNH164), or human Cdc20 (aa 162–484; pNH188). For SMOR, a C-terminal GFP tag was added. Bacmid plasmids are listed in Supplementary Table 3. Plasmids were transformed into DH10Bac cells, and purified Bacmid was used to transfect Sf9 cells to generate P1 baculovirus, which was used to generate P2 virus. SF9 cells were infected with the P2 virus for 48 h. Flash-frozen pellets were lysed by sonication or high-pressure homogenization in lysis buffer B (50 mM Tris-HCl pH 8, 150 mM KCl, 0.5 mM EDTA, 1 mM DTT, 10% Glycerol, EDTA-free protease inhibitor tablet, 1 µg ml^−1 pepstatin A). After the lysate was applied to the StrepTrap column, the column was washed with wash buffer B (lysis buffer B lacking protease inhibitors) and eluted in the same buffer containing 2.5 mM desthiobiotin.
as §2, §3
Microscopy was performed with a Nikon Eclipse TE2000-E with Perfect Focus with a 100 × 1.49na oil, Apo TIRF DIC N2, 0.13-0.2, WD0.12 objective. Movies were recorded using the Andor iXon DU-897E-CSO. For visualizing GFP-tagged protein, a 491 nm laser was used with an ET525/50 (Chroma) filter for emission. For visualizing JF549-labeled substrate, a 561 nm laser was used with an ET595/50 (Chroma) filter for emission. For visualizing all Cy5-labeled peptides and JF646-labeled substrates, a 640 nm laser was used with an ET685/70 filter (Chroma) for emission. […]

[4] abbreviates: Supplementary Table 1, replicate 1 (movie listed first).
The mark [5] stands for this setting: Supplementary Table 1, replicate 2 (movie listed second).
The mark [6] stands for this setting: Supplementary Table 1, replicate 1.
[7] abbreviates: Supplementary Table 1, replicate 2.

Where “and” joins values, the source holds several entries; their conditions need not be identical. Identical values can stand only once. Where a SMILES comes first, the peptide text is derived from it.

T3 sequence (Q9UM11 165-484): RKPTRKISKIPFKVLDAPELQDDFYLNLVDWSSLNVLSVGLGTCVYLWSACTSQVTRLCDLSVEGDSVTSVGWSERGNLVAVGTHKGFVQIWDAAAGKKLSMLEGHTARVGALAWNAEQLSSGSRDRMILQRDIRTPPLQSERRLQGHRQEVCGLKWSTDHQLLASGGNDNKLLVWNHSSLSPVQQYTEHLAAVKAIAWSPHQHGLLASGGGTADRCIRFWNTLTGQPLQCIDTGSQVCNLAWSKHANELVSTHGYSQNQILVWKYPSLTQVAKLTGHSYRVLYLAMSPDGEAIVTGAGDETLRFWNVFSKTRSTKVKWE

`CC[C@H](C)[C@H](NC(=O)[C@H](Cc1ccccc1)NC(=O)[C@H](CO)NC(=O)[C@H](CCCCN)NC(=O)[C@H](CO)NC(=O)[C@H](CCCNC(=N)N)NC(=O)[C@H](CC(N)=O)NC(=O)[C@H](CC(N)=O)NC(=O)[C@H](CC(=O)O)NC(=O)[C@H](CCCCN)NC(=O)[C@H](C)NC(=O)[C@H](C)NC(=O)[C@H](CC(C)C)NC(=O)[C@@H]1CCCN1C(=O)[C@H](CC(C)C)NC(=O)[C@H](CCCNC(=N)N)NC(=O)CNC(=O)[C@H](CCC(N)=O)NC(=O)[C@H](CCC(N)=O)NC(=O)[C@H](CCC(N)=O)NC(=O)[C@H](C)N)C(=O)N[C@@H](CCCCN)C(=O)O` [ySecurin D box] (H-AQQQGRLPLAAKDNNRSKSFIK-OH; N-terminus and C-terminus assumed): the “Dwell Time” value in assay [1] (setting [4]) stood at 1.859 ± 0.041 s; in assay [1] (setting [5]), 1.870 ± 0.035 s. The mean dwell time in assay [1] is 1.87 ± 0.04 s and 1.87 s. Further, the “fold higher affinity for APC/C^Cdc20” value in assay [1] (vs APC/C^Cdh1) was 15 fold. For the same compound, the entries for the “Dwell Time (in words)” value in assay [2], in assay [3] (setting [6]) and in assay [3] (setting [7]) were “no binding”, “single frame” and “single frame”, respectively.

Regarding `CC(C)C[C@H](NC(=O)[C@H](C)NC(=O)[C@H](CCCNC(=N)N)NC(=O)[C@H](CCCNC(=N)N)NC(=O)[C@@H]1CCCN1C(=O)[C@H](CCCCN)NC(=O)[C@H](CO)NC(=O)[C@H](CC(=O)O)NC(=O)[C@@H](N)CCC(N)=O)C(=O)N[C@H](C(=O)N[C@@H](CC(=O)O)C(=O)N[C@H](C(=O)N1CCC[C@H]1C(=O)N[C@H](C(=O)N[C@@H](CC(N)=O)C(=O)N[C@@H](CC(N)=O)C(=O)N[C@@H](CC(N)=O)C(=O)N1CCC[C@H]1C(=O)N[C@@H](CC(C)C)C(=O)N[C@@H](CO)C(=O)N[C@@H](CCC(N)=O)C(=O)N[C@@H](CCCCN)C(=O)O)C(C)C)C(C)C)[C@@H](C)O` [Clb5 D box] (H-QDSKPRRALTDVPVNNNPLSQK-OH; N-terminus and C-terminus assumed), the “Dwell Time” value in assay [1] (setting [4]) worked out at 0.179 ± 0.008 s; in assay [1] (setting [5]) it was 0.207 ± 0.008 s. For the same compound, the mean dwell time in assay [1] is 0.207 ± 0.008 s and 0.207 s. For the same compound, the “Dwell Time (in words)” value in assay [2] is recorded as “no binding”; in assay [3] (setting [6]), “single frame”; in assay [3] (setting [7]), “single frame”.

“LIYVDKENGEPGTR-K(Cy5) [hSecurin KEN, Cy5-labeled KEN box peptide of human securin/Pttg1]”: the “binding (in words)” value in assay [1] is reported as “No binding”. In addition, the “Dwell Time (in words)” value in assay [1] (setting [6]), in assay [1] (setting [7]) and in assay [2] was “no binding” each time. The “Dwell Time” value in assay [3] (setting [4]) came out at 0.171 ± 0.004 s; in assay [3] (setting [5]), 0.174 ± 0.003 s. Further, in assay [3], the mean dwell time is 0.174 ± 0.003 s and 0.174 s.

Regarding “LPKATRKALGTVNRATEKSVK-K(Cy5) [AurKB D box, Cy5-labeled D box peptide of Aurora B kinase]”, the “binding (in words)” value in assay [1] is “No binding”. Besides, the “Dwell Time (in words)” value in assay [1] (setting [6]), in assay [1] (setting [7]) and in assay [2] was “no binding” each time. The “Dwell Time” value in assay [3] (setting [4]) stood at 0.202 ± 0.003 s; in assay [3] (setting [5]) it was 0.135 ± 0.003 s. For the same compound, the mean dwell time in assay [3] was 0.202 ± 0.003 s and 0.202 s.

Take `CC[C@H](C)[C@H](NC(=O)[C@H](CC(=O)O)NC(=O)[C@H](CO)NC(=O)[C@H](C)NC(=O)[C@H](C)NC(=O)[C@H](C)NC(=O)[C@H](C)NC(=O)[C@H](CCCCN)NC(=O)[C@@H]1CCCN1C(=O)[C@H](CCCCN)NC(=O)[C@H](CCC(N)=O)NC(=O)[C@@H](N)CCC(=O)O)C(=O)N[C@H](C(=O)N[C@@H](C)C(=O)N[C@@H](CO)C(=O)N[C@@H](Cc1ccccc1)C(=O)N[C@@H](CC(N)=O)C(=O)N[C@@H](CCCCN)C(=O)N[C@@H](CCSC)C(=O)N[C@@H](CC(N)=O)C(=O)N[C@@H](CCCCN)C(=O)O)[C@@H](C)O` [Hsl1 D box mutant] (H-EQKPKAAAASDITASFNKMNK-OH; N-terminus and C-terminus assumed): the “binding (in words)” value in assay [1] and in assay [3] was “No binding” throughout. Also, the “Dwell Time (in words)” value in assay [1] (setting [6]), in assay [1] (setting [7]), in assay [2] and in assay [3] (setting [6]) was “no binding” in each case.

“SKAAQFMLYEETAEERNI-K(Cy5) [Acm1 ABBA, Cy5-labeled Cdh1-specific ABBA motif from pseudosubstrate yeast protein Acm1]”: the “binding (in words)” value in assay [1] and in assay [3] was “No binding” in each case. For the same compound, the “Dwell Time (in words)” value in assay [1] (setting [6]), in assay [1] (setting [7]), in assay [2], in assay [3] (setting [6]) and in assay [3] (setting [7]) was “no binding” in each case.
